In patent publication US8513271B2, “Pyrimidine compounds as delta opioid receptor modulators” (Janssen Pharmaceutica, NV, priority 2009, dated 2013):
Where two headings read alike, the source gives them in different places.

Experiments:
[1] = molecular target: T1, delta opioid receptor (Rattus norvegicus, UniProt P33533); test: Rat brain delta opioid receptor binding assay; conditions: rat forebrain
T1 construct: the forebrains were homogenized in Tris buffer in a Teflon®-glass homogenizer; from tissue; host or cells: forebrain of male Wistar rats, particulate (membrane) preparation

[2] = molecular target: T2, delta opioid receptor (Mus musculus, UniProt P32300); test: [35S]GTPγS binding assay in NG108-15 cell membranes (delta opioid functional assay), 200 nM screen; assay type: biochemical; conditions: NG108-15 cell membranes; for EC50: averages if tested more than once; for GTPγS δ-opioid receptor Rel Efficacy: relative efficacy from dose response
T2 construct: NG108-15 cell membranes were purchased from Applied Cell Sciences (Rockville, Md.); host or cells: NG108-15 cell membranes

[3] = molecular target: T3, mu opioid receptor (Rattus norvegicus, UniProt P33535); test: Rat brain mu opioid receptor binding assay; conditions: rat forebrain, [3H]DAMGO ligand
T3 construct: the forebrains were homogenized in Tris buffer in a Teflon®-glass homogenizer; from tissue; host or cells: forebrain of male Wistar rats, particulate (membrane) preparation

[4] = δ-binding (Naltrindole ligand) Ki, [3H]naltrindole ligand
[5] = read-out: GTPγS δ-opioid receptor EC50
[6] = [3H]naltrindole ligand, read-out: δ-binding (Naltrindole ligand) Ki

T1 sequence (P33533 whole entry): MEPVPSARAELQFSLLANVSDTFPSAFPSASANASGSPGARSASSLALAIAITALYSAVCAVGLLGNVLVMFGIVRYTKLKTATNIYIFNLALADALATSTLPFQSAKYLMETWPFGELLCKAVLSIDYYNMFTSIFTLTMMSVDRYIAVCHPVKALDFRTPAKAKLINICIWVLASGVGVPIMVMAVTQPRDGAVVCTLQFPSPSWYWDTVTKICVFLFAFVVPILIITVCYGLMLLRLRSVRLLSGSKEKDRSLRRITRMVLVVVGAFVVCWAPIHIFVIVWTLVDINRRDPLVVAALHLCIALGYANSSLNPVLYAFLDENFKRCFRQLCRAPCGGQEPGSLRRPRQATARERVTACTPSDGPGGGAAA
T3 sequence (P33535 whole entry): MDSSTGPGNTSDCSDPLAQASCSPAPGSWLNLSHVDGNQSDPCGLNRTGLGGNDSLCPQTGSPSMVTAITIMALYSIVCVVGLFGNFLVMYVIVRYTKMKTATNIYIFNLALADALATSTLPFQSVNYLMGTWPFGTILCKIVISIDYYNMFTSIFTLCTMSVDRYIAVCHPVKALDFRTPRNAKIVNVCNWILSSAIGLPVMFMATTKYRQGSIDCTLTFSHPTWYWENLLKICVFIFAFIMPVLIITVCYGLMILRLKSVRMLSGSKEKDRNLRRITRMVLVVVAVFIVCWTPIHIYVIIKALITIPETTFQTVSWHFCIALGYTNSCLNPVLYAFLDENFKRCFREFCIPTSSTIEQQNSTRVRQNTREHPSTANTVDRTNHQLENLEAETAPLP
T2 sequence (P32300 whole entry): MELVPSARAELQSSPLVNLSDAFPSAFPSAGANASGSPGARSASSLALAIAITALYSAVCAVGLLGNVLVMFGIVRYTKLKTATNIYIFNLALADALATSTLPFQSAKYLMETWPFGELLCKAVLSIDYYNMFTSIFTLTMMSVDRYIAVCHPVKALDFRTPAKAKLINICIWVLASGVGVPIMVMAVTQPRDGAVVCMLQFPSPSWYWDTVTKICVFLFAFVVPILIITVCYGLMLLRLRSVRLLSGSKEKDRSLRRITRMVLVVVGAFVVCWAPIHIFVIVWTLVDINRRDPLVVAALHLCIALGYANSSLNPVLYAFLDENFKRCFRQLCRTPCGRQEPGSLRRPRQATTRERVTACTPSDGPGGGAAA

| SMILES | Ki [1, 4] [nM] | EC50 [2, 5] [µM] | Ki ([3]; read-out: μ-binding Ki) [nM] | also measured |
| --- | --- | --- | --- | --- |
| COc1ccc(Oc2nc(-c3cncc(F)c3)ncc2NC[C@@H]2CCCN2)c(F)c1F [Cpd 102] | 3 | 0.255 |  |  |
| COc1ccc(Oc2nc(-c3cccc([N+](=O)[O-])c3)ncc2NC[C@@H]2CCCN2)cc1 [Cpd 29] | 86 |  | 2660 |  |
| COc1ccc(-c2ncc(NC[C@@H]3CCCN3)c(Oc3ccc(N)cc3)n2)cn1 [Cpd 44] |  |  | 2690 | Ki [1, 6]: 4 nM |
| Fc1ccc(Oc2nc(-c3cccnc3)ncc2NC[C@@H]2CCCN2)cc1 [Cpd 36] | 3 |  | 4770 |  |
| COc1ccc(Oc2nc(-c3cnc(OC)nc3)ncc2NC[C@@H]2CCCN2)cc1 [Cpd 53] | 0.2 |  | 591 |  |
| COc1ccc(Oc2nc(-c3cncnc3)ncc2NC[C@@H]2CCCN2)c(F)c1F [Cpd 103] | 11 | 0.311 |  |  |
| COc1ccc(Oc2nc(-c3cccc(OC(F)(F)F)c3)ncc2NC[C@@H]2CCCN2)cc1 [Cpd 51] | 22 |  | 1030 |  |
| COc1ccc(-c2ncc(NC[C@@H]3CCCN3)c(Oc3ccccc3OC)n2)cn1 [Cpd 39] | 67 |  | 8990 |  |
| COc1ccc(Oc2nc(-c3cccc(F)c3)ncc2NC[C@@H]2CCCN2)cc1 [Cpd 38] | 1 |  | 4910 |  |
| COc1ccc(Oc2nc(-c3ccc(C#N)nc3)ncc2NC[C@@H]2CCCN2)cc1 [Cpd 95] | 11 | 0.708 |  |  |
| COc1ccc(Oc2nc(-c3cccc(C(F)(F)F)c3)ncc2NC[C@@H]2CCCN2)cc1 [Cpd 50] | 55 |  | 597 |  |
| COc1ccc(Oc2nc(-c3cncc(C#N)c3)ncc2NCCN)cc1 [Cpd 293] | 8 | 0.317 |  |  |
| COc1ccc(Oc2nc(-c3nccs3)ncc2NC[C@@H]2CCCN2)cc1 [Cpd 48] | 24 |  | 862 |  |
| COc1ccc(Oc2nc(-c3cccc(OC)c3)ncc2NC[C@@H]2CCCN2)cc1 [Cpd 3] |  |  | 2340 | Ki ([1]; [3H]DPDPE ligand, read-out: δ-binding (DPDPE ligand) Ki): 142 nM |
| Cc1nc2ccc(Oc3nc(-c4cncnc4)ncc3NC[C@@H]3CCCN3)cc2s1 [Cpd 91] | 22 | > 10 |  |  |
| COc1ccc(Oc2nc(-c3ccc4sc5ccccc5c4c3)ncc2NC[C@@H]2CCCN2)cc1 [Cpd 21] |  |  | 2390 | Ki [1, 6]: 201 nM |
| COc1ccc(Oc2nc(-c3ccc(NC(C)=O)cc3)ncc2NC[C@@H]2CCCN2)cc1 [Cpd 43] | 4 |  | 523 |  |
| COc1ccc(Oc2nc(-c3cncnc3)ncc2NCC2CNCCO2)cc1 (stereo not shown) [Cpd 277] |  | 1.09 |  | Ki [1, 6]: 32 nM; GTPγS δ-opioid receptor Rel Efficacy [2]: 1.012 |
| COc1c(F)cc(Oc2nc(-c3cncc(C#N)c3)ncc2NC[C@@H]2CCCN2)cc1F [Cpd 96] | 35 | 0.749 |  |  |
| COc1ccc(Oc2nc(-c3cncc(C#N)c3)ncc2NC2CCC(N)CC2)cc1 (stereo not shown) [Cpd 298] | 4 |  |  | EC50 ([2]; GTPγS δ-opioid receptor EC50 (μM)): 0.087 µM; GTPγS δ-opioid receptor Rel Efficacy [2]: 1.012 |
| COc1ccc(Oc2nc(-c3cnc(N4CCN(C)CC4)nc3)ncc2NC[C@@H]2CCCN2)cc1 [Cpd 84] |  |  | 338 | Ki [1, 6]: 16 nM |
| COc1ccc(Oc2nc(-c3cccc(C#N)c3)ncc2NC[C@@H]2CCCN2)cc1 [Cpd 28] | 6.1 |  | 295 |  |
| COc1ccc(Oc2nc(-c3cnc(N4CCOCC4)nc3)ncc2NC[C@@H]2CCCN2)cc1 [Cpd 83] | 14 |  | 673 |  |
| COc1ccc(Oc2nc(-c3cc(F)cc(OC)c3)ncc2NC[C@@H]2CCCN2)cc1 [Cpd 70] | 47 |  | 2250 |  |
| COc1ccc(Oc2nc(-c3cnc(N)nc3)ncc2NC[C@@H]2CCCN2)cc1 [Cpd 81] |  |  | 569 | Ki [1, 6]: 355 nM |

| SMILES | Ki [1, 4] [nM] | EC50 [2, 5] [µM] | Ki ([3]; read-out: μ-binding Ki) [nM] | also measured |
| --- | --- | --- | --- | --- |
| COc1ccc(Oc2nc(-c3cccc(O)c3)ncc2NC[C@@H]2CCCN2)cc1 [Cpd 15] | 0.1 |  | 416 |  |
| COc1ccc(Oc2nc(-c3ccsc3)ncc2NC[C@@H]2CCCN2)cc1 [Cpd 9] |  |  | 2970 | Ki [1, 6]: 1 nM |
| CCCOc1ccc(Oc2nc(-c3cncnc3)ncc2NC[C@@H]2CCCN2)cc1 [Cpd 114] | 8 | 0.306 |  |  |
| FC(F)Oc1ccc(Oc2nc(-c3cncnc3)ncc2NC[C@@H]2CCCN2)cc1 [Cpd 111] | 9 | 0.491 |  |  |
| NC(=O)c1ccc(Oc2nc(-c3cccnc3)ncc2NC[C@@H]2CCCN2)cc1 [Cpd 12] | 18 |  | 4520 |  |
| COc1ccc(Oc2nc(-c3c(C)noc3C)ncc2NC[C@@H]2CCCN2)cc1 [Cpd 62] |  |  | 1920 | Ki [1, 6]: 544 nM |
| COc1ccc(Oc2nc(-c3ccn[nH]3)ncc2NC[C@@H]2CCCN2)cc1 [Cpd 61] |  |  | 3990 | Ki [1, 6]: 259 nM |
| COc1ccc(Oc2nc(-c3ccc(O)cc3)ncc2NC[C@@H]2CCCN2)cc1 [Cpd 33] | 29 |  |  | Ki ([3]; μ-binding Ki): 29 nM |
| COc1ccc(Oc2nc(-c3nc4ccccc4s3)ncc2NC[C@@H]2CCCN2)cc1 [Cpd 47] | 6 |  | 1130 |  |
| COc1ccc(Oc2nc(-c3noc(=O)[nH]3)ncc2NC[C@@H]2CCCN2)cc1 [Cpd 35, 3-{4-(4-Methoxy-phenoxy)-5-[(pyrrolidin-2-(S)-ylmethyl)-amino]-pyrimidin-2-yl}-4H-[1,2,4]oxadiazol-5-one] |  |  | 184 | Ki [1, 6]: 184 nM |
| c1ccc(Oc2nc(-c3cccnc3)ncc2NC[C@@H]2CCCN2)cc1 [Cpd 14] | 1 |  | 1730 |  |
| COc1ccc(Oc2nc(-c3cncnc3)ncc2NC[C@@H]2CC(F)(F)CN2)cc1 [Cpd 79] | 95 |  | > 10000 |  |
| COc1cccc(Oc2nc(-c3cncnc3)ncc2NC[C@@H]2CCCN2)c1 [Cpd 99] | 59 | 0.939 |  |  |
| CCCOc1ccc(Oc2nc(-c3cncc(F)c3)ncc2NC[C@@H]2CCCN2)cc1 [Cpd 115] | 52 | 2.71 |  |  |
| Cc1nc2ccc(Oc3nc(-c4cncc(C#N)c4)ncc3NC[C@@H]3CCCN3)cc2s1 [Cpd 90] | 9 | 0.923 |  |  |
| COc1ccc(Oc2nc(-c3ccc4nccnc4c3)ncc2NC[C@@H]2CCCN2)cc1 [Cpd 76] |  |  | 333 | Ki [1, 6]: 111 nM |
| Oc1ccc(Oc2nc(-c3ccc(O)nc3)ncc2NCC2CCCN2)cc1 (stereo not shown) [Cpd 75] | 36 |  | 5120 |  |
| COc1c(F)cc(Oc2nc(-c3cncnc3)ncc2NC[C@@H]2CCCN2)cc1F [Cpd 97] | 39 | 7.12 |  |  |
| COc1ccc(Oc2nc(-c3cc(C)cc(C)c3)ncc2NC[C@@H]2CCCN2)cc1 [Cpd 92] | 35 | 0.47 |  |  |
| Fc1cncc(-c2ncc(NC[C@@H]3CCCN3)c(Oc3ccc(OC(F)F)cc3)n2)c1 [Cpd 112] |  | 0.33 |  | Ki [1, 6]: 6 nM; GTPγS δ-opioid receptor Rel Efficacy [2]: 1.082 |
| COc1ccc(Oc2nc(-c3cncc(C#N)c3)ncc2NCC2COCCN2)cc1 (racemic) [Cpd 279] |  | 0.17 |  | Ki [1, 6]: 5 nM; GTPγS δ-opioid receptor Rel Efficacy [2]: 1.004 |
| COc1ccc(Oc2nc(-c3cncc(C#N)c3)ncc2NC[C@H]2COCCN2)cc1 [Cpd 280] |  | 0.181 |  | Ki [1, 6]: 6 nM; GTPγS δ-opioid receptor Rel Efficacy [2]: 0.998 |
| Cc1nc2ccc(Oc3nc(-c4cncc(C#N)c4)ncc3NC[C@@H]3CCCN3)cc2s1 [Cpd 88] |  | 0.478 |  | Ki [1, 6]: 14 nM; GTPγS δ-opioid receptor Rel Efficacy [2]: 0.538 |
| COc1ccc(Oc2nc(-c3cncnc3)ncc2NC[C@@H]2C[C@H](F)CN2)cc1 [Cpd 89] | 10 | 1.31 |  |  |
| COc1cccc(Oc2nc(-c3cccnc3)ncc2NC[C@@H]2CCCN2)c1 [Cpd 100] | 33 | 1.62 |  |  |
